Data as given in US20230263822A1, “MODULATION OF FACTOR 11 EXPRESSION” (Ionis Pharmaceuticals, Inc., priority 2008, published 2023).
Like-named read-outs stand apart in the source and are kept apart here.

Columns and labels:
[1] = set-up: species or system BALB/c mice; details: mouse, in vivo; for Blood (tail bleeding, collected over 40 minutes): sc
Experimental: ISIS 404071 and Apixaban were evaluated in the tail bleeding model.
The saline filled tubes were weighed before and after bleeding.

[2] = Collagenase-induced intracerebral hemorrhage model: hemorrhage volume, neurologic deficit score, mortality (Example 25); assay type: in vivo, BALB/c mice
Experimental: In a first cohort, ISIS 404071 was administered subcutaneously to BALB/c mice twice a week for two weeks at a dose 40 mg/kg. […] In a third cohort, ISIS 421208 ([…], 8 mismatches to murine Factor 11, incorporated herein as SEQ ID NO: 14) was administered subcutaneously to BALB/c mice twice a week for two weeks at a dose 40 mg/kg. In a fourth cohort, PBS was administered to BALB/c mice twice a week for two weeks.
Two days after receiving their final dose, all mice in all cohorts were anesthetized with […] of avertin. Next, the mice were injected at −1 mm AP, 1 mm R ML, −4 mm DV from bregma flat skull with a 10 μL Hamilton syringe containing 0.075 U collagenase (150 U/mL). Collagenase was delivered over 5 minutes and the needle was kept in place for an additional 5 minutes to prevent reflux. The mice were then analyzed for hemorrhagic size, neurologic deficit score, and mortality.
Table 37 presents the hemorrhage volume detected in mice after collagenase treatment, Table 38 presents the neurologic deficit score of the mice, and Table 39 presents the mortality rate of the mice. Neurological deficit is measured by a standard scoring system where no deficiency is zero and severe deficit is five.

blood coagulation [3] = assay: Time course of aPTT after one dose (Example 29); assay type: in vivo, BALB/c mice; details: for aPTT INR: values approximate
Experimental: One dose of 50 mg/kg ISIS 404071 was administered subcutaneously to BALB/c mice. Following ISIS 404071 administration, mice were sacrificed at 12 hours, 1 day, 2 days, 3 days, 4 days, 7 days, 14 days, 28 days, and 56 days. Whole liver was collected for RNA analysis and PPP was collected for aPTT analysis. A control group of mice was treated with one subcutaneous dose of PBS.
aPTT values provided in Table 43 are reported as International Normalized Ratio (INR) values. INR values for aPTT were determined by dividing the aPTT value for ISIS 404071 treated mice by the aPTT for the PBS treated group. This ratio was then raised to the power of the International Sensitivity Index (ISI) of the tissue factor used.

blood coagulation [4] = assay: Sense-oligonucleotide antidote: aPTT (Example 23); assay type: in vivo, BALB/c mice; details: ISIS 404071 40 mg/kg s.c. twice a week for three weeks, ISIS 418026 90 mg/kg where given
Experimental: The effect of the specific sense oligonucleotide to ISIS 404071 as an antidote was tested in BALB/c mice. In a first cohort, ISIS 404071 was administered subcutaneously to BALB/c mice twice a week for three weeks at a dose of 40 mg/kg. In a second cohort, ISIS 404057 was administered subcutaneously to BALB/c mice twice a week for three weeks at a dose of 40 mg/kg. The ISIS 404071 specific antidote, ISIS 418026 ([…]; complementary to ISIS 404071), incorporated herein as SEQ ID NO: 13, was administered to both cohorts subcutaneously in a single injection of 90 mg/kg 48 hours after the final treatment of ISIS 404071 or 404057. In a third cohort, ISIS 404071 was administered subcutaneously to BALB/c mice twice a week for three weeks at a dose of 40 mg/kg. Following the last treatment of ISIS 404071, mice were injected subcutaneously injected with PBS. In a fourth cohort, ISIS 404057 was administered subcutaneously to BALB/c mice twice a week for three weeks at a dose of 40 mg/kg. Following the last treatment of ISIS 404057, mice were injected subcutaneously injected with PBS. Following antidote administration, a set of 4 mice from each cohort were sacrificed at 12 hours, 1 day, 2 days, 3 days, 7 days, and 14 days. Whole liver was collected for RNA analysis and PPP was collected for aPTT analysis.

platelet factor-4 (PF-4) = assay: Thrombus formation by PF-4 real-time PCR, FeCl3 induced venous thrombosis model vs Apixaban (Example 14); assay type: in vivo, BALB/c mice; details: for PF-4 in vena cava, percentage as compared to PBS controls (thrombus formation): + FeCl3
Experimental: ISIS 404071 and Apixaban were evaluated in the FeCl3 induced VT mouse model. […] Two days after receiving the last dose of ISIS 404071, mice were anesthetized with 150 mg/kg ketamine mixed with 10 mg/kg xylazine administered by intraperitoneal injection. […] Twenty minutes after receiving Apixaban, mice were anesthetized with 150 mg/kg ketamine mixed with 10 mg/kg xylazine administered by intraperitoneal injection. […] Two days after the last dose of PBS, mice in both groups were anesthetized with 150 mg/kg ketamine mixed with 10 mg/kg xylazine administered by intraperitoneal injection. Thrombus formation was induced with FeCl3 in all of the mice except the first control group.
In mice undergoing FeCl3 treatment, thrombus formation was induced by applying a piece of filter paper (2×4 mm) pre-saturated with 10% FeCl3 solution directly on the vena cava. After 3 minutes of exposure, the filter paper was removed. Thirty minutes after the filter paper application, a fixed length of the vein containing the thrombus was dissected out for platelet analysis. Liver was collected for RNA analysis.
Real-time PCR quantification of platelet factor-4 (PF-4) was used to quantify platelets in the vena cava as a measure of thrombus formation. […] Results are presented as a percentage of PF-4 in ISIS 404071 or Apixaban treated mice, as compared to the two PBS-treated control groups.

[5] = collagenase-induced intracerebral hemorrhage, 40 mg/kg twice a week for two weeks

ISIS 404071: antisense oligonucleotide targeted to murine Factor 11 mRNA, TGGTAATCCACTTTCAGAGG, target start site 869 (chemistry not given here)
bleeding in tail bleeding assay [1]: did not affect bleeding
Blood (tail bleeding, collected over 40 minutes) ([1]; 1.25 mg/kg): 0.00 g
Blood (tail bleeding, collected over 40 minutes) ([1]; 5 mg/kg): 0.00 g
Blood (tail bleeding, collected over 40 minutes) ([1]; 10 mg/kg): 0.04 g
Blood (tail bleeding, collected over 40 minutes) ([1]; 25 mg/kg): 0.01 g
Blood (tail bleeding, collected over 40 minutes) ([1]; 50 mg/kg): 0.01 g
Hemorrhagic volume after collagenase treatment ([2]; 40 mg/kg s.c. twice a week for two weeks): 38 mm^3
Neurologic Deficit Score after collagenase treatment ([2]; 40 mg/kg s.c. twice a week for two weeks, score zero (no deficiency) to five (severe deficit)): 3.8
% mortality after collagenase treatment ([2]; ISIS oligonucleotides 40 mg/kg s.c., warfarin 2 mg/kg intraperitoneally, twice a week for two weeks): 20%
hemorrhagic size [2, 5]: did not have a significant effect
mortality [2, 5]: did not have a significant effect
neurologic deficit score [2, 5]: did not have a significant effect
aPTT over time (blood coagulation [3]; BALB/c mice, one s.c. dose of 50 mg/kg): progressive decrease of aPTT until day 4 and then progressive increase to pre-treatment levels from day 7 to day 28
aPTT INR (blood coagulation [3]; day 1 after one dose of 50 mg/kg s.c.): ~1.02 INR
aPTT INR (blood coagulation [3]; day 2 after one dose of 50 mg/kg s.c.): ~1.12 INR
aPTT INR (blood coagulation [3]; day 3 after one dose of 50 mg/kg s.c.): ~1.29 INR
aPTT INR (blood coagulation [3]; day 4 after one dose of 50 mg/kg s.c.): ~1.30 INR
aPTT INR (blood coagulation [3]; day 7 after one dose of 50 mg/kg s.c.): ~1.25 INR
aPTT INR (blood coagulation [3]; day 14 after one dose of 50 mg/kg s.c.): ~1.11 INR
aPTT INR (blood coagulation [3]; day 28 after one dose of 50 mg/kg s.c.): ~1.02 INR
aPTT INR (blood coagulation [4]; 12 hours after antidote/PBS): 1.51 INR
aPTT INR (blood coagulation [4]; 1 day after antidote/PBS): 1.30 INR
aPTT INR (blood coagulation [4]; 2 day after antidote/PBS): 1.35 INR
aPTT INR (blood coagulation [4]; 3 day after antidote/PBS): 1.27 INR
aPTT INR (blood coagulation [4]; 7 day after antidote/PBS): 1.18 INR
aPTT INR (blood coagulation [4]; 14 day after antidote/PBS): 1.05 INR
PF-4 in vena cava as measure of thrombus formation (platelet factor-4 (PF-4); FeCl3 induced VT model, vs PBS control): resulted in reduction of PF-4
PF-4 in vena cava, percentage as compared to PBS controls (thrombus formation) (platelet factor-4 (PF-4); ISIS 404071 1.25 mg/kg subcutaneously twice a week for 3 weeks): 42%
PF-4 in vena cava, percentage as compared to PBS controls (thrombus formation) (platelet factor-4 (PF-4); ISIS 404071 5 mg/kg subcutaneously twice a week for 3 weeks): 60%
PF-4 in vena cava, percentage as compared to PBS controls (thrombus formation) (platelet factor-4 (PF-4); ISIS 404071 10 mg/kg subcutaneously twice a week for 3 weeks): 28%
PF-4 in vena cava, percentage as compared to PBS controls (thrombus formation) (platelet factor-4 (PF-4); ISIS 404071 25 mg/kg subcutaneously twice a week for 3 weeks): 14%
PF-4 in vena cava, percentage as compared to PBS controls (thrombus formation) (platelet factor-4 (PF-4); ISIS 404071 50 mg/kg subcutaneously twice a week for 3 weeks): 4%
